Results taken from patent US6214869A, “Heterocyclic cis cyclopropane derivatives as melatonergic agents” (Bristol-Myers Squibb, priority 1999, dated 2001).

Target: T1, ML1a human melatonin receptor (Homo sapiens, UniProt P48039)
T1 construct: expressed in transfected cells
Experiment: Melatonergic receptor binding (2-[125I]-iodomelatonin, membranes of NIH-3T3 cells expressing ML1a receptor)
Conditions: 37° C. for 1 hour, read-out: Melatonin Binding Affinity (IC50)
Protocol: Melatonergic Receptor Binding Activity
(a) TME=50 mM Tris buffer containing 12.5 mM MgCl2, and 2 mM EDTA, pH 7.4 at 37° C. with concentrated HCl.
(b) Wash buffer: 20 mM Tris base containing 2 mM MgCl2, pH 7.4 at room temperature.
(c) 10^-4 M melatonin (10^-5 M final concentration).
(d) 2-[^125 I]-iodomelatonin, 0.1 M final concentration
The melatonin ML1a receptor cDNA was subcloned into pcDNA3 and introduced into NIH-3T3 cells using Lipofectamine. Transformed NIH-3T3 cells resistant to geneticin (G-418) were isolated, and single colonies expressing high levels of 2[^125 I]-iodomelatonin binding were isolated. Cells are maintained in DMEM supplemented with 10% calf serum and G-418 (0.5 g/liter). Cells are grown to confluency in T-175 flasks, scraped using Hank's balanced salt solution, and frozen at -80° C. For preparing membrane homogenates, pellets are thawed on ice, and resuspended in TME buffer in the presence of 10 μg/ml aprotinin and leupeptin, and 100 μM phenylmethylsulfonylfluoride. The cells were then homogenized using a dounce homogenizer, and centrifuged. The resulting pellet was resuspended with dounce homogenizer in TME (supplemented with the above protease inhibitors) and frozen. On the day of assay, the small aliquot was thawed on ice and resuspended in ice cold TME (1:50-1:100 v/v) and held on ice until assayed.
3. Incubation: 37° C. for 1 hour. Reaction is terminated by filtration. Filters are washed 3 times.
^a = (IC50) values for ML1a human melatonin receptor binding

T1 sequence (P48039 whole entry): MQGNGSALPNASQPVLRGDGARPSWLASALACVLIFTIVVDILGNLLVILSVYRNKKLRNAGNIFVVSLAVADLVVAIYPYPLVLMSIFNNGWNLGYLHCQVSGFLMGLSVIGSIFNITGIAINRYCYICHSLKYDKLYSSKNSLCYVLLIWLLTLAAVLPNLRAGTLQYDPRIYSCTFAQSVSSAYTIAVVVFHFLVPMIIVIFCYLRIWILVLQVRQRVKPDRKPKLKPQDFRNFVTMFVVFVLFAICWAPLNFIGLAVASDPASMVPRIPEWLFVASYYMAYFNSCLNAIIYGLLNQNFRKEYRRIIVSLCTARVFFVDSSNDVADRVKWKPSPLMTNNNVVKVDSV

Q: CCC(=O)NC[C@@H]1C[C@@H]1c1cccc2c1CCO2 (relative stereo) [Example 1, (cis)-N-[[2-(2,3-Dihydrobenzofuran-4-yl)cycloprop-1-yl]methyl]propanamide] was tested. Which IC50 did it give?
A: Its IC50 is under 50 nM.

Q: CC(=O)NC[C@@H]1C[C@@H]1c1cccc2c1CCO2 (relative stereo) [Example 2, (cis)-N-[[2-(2,3-Dihydrobenzofuran-4-yl)cycloprop-1-yl]methyl]acetamide] was tested. Which IC50 did it give?
A: Its IC50 is 50 to 200 nM.

Q: For O=C(NC[C@@H]1C[C@@H]1c1cccc2c1CCO2)C1CC1 (relative stereo) [Example 3, (cis)-N-[[2-(2,3-Dihydrobenzofuran-4-yl)cycloprop-1-yl]methyl]cyclopropane carboxamide], which IC50 is on record?
A: The IC50 was under 50 nM.

Q: Which IC50 does the source give for CCCC(=O)NC[C@@H]1C[C@@H]1c1cccc2c1CCO2 (relative stereo) [Example 4, (cis)-N-[[2-(2,3-Dihydrobenzofuran-4-yl)cycloprop-1-yl]methyl]butyramide] here?
A: Its IC50 is under 50 nM.

Q: How did the IC50 turn out when CC(C)C(=O)NC[C@H]1C[C@H]1c1cccc2c1CCO2 (relative stereo) [Example 5, (cis)-N-[[2-(2,3-Dihydrobenzofuran-4-yl)cycloprop-1-yl]methyl]-2-methyl propanamide] was run?
A: Its IC50 is under 50 nM.
